From patent US20260263406A1, “SYNERGISTIC COMPOSITION FOR MODULATING EXPRESSION OF CD38” (CELAGENEX RESEARCH (INDIA) PVT. LTD., priority 2023, published 2026)

Key:
Format in all cases: in vivo, Sprague-Dawley rats
GLUT4 [1] = test: Western blot of GLUT4 expression in skeletal muscles of streptozotocin-induced diabetic rats; design: concentration or dose not given beside the values; details: STZ diabetic rats, skeletal muscle, 28 days treatment, versus diabetic control G2
Procedure: (§1) “To evaluate the antidiabetic potential of the present compositions and its mechanistic role in controlling damages of vital tissues in streptozotocin-induced diabetic rats.”
(§2) • Species: Rats • Strain: Sprague-Dawley • Sex: Male • No. of animals: 36 Animals (n=6 per group) • Body weight: 110-130 g Animal House conditions • Lighting: 12/12-hour light-dark cycle • Temperature: 22±3° C. • Relative Humidity: 40 to 60%
(§3) Acclimatization: Animals have been acclimatized to the animal house environment for 2 weeks. The animal experiments were designed and conducted strictly in accordance with the guidelines of AEC. Streptozotocin (STZ) was freshly prepared in 0.1M citrate buffer (pH 4.5). T2D was induced experimentally by single intraperitoneal (i.p.) injection of low dose STZ (40 mg per kg) to the rats, kept fasted overnight. Animals were unfed for 12 h before the estimation of fasting blood glucose. When the fasting plasma glucose level had become above 250 mg dL-1 in 72 h after STZ administration, STZ treated animals were considered as diabetic and all the experimental animals were then kept without any treatment for a period of 2 weeks. The composition treatment was started on 15th day after STZ injection in the respective groups of rats.
(§4) Test sample was dissolved in water containing 0.1% v/v Dimethyl Sulfoxide (DMSO) for animal treatment. Diabetic rats were then treated with intracerebroventricular (i.c.v.) administration of test samples. The animals were divided in six groups each of which contained six rats:
(§5) Daily food and water consumptions were observed and body weights were taken on a weekly basis. After 72 h of STZ administration, blood was drawn from tail vein of rats and fasting blood glucose was measured by glucometer. On the last day of the experiment, all rats were sacrificed by common method of euthanasia. All animals were unfed for 12 h before being killed. Liver, kidneys, pancreas tissues and skeleton muscles were removed surgically and stored at −80° C. in a deep freezer for western blot analysis.
(§6) GLUT4 and CD38 expressions were evaluated by Western blot. For GLUT4 content analysis, membrane samples were prepared from skeletal muscles and for CD38 protein analysis, liver tissues were used. In Western blot analysis, 25 μg of membrane protein per sample was subjected to Sodium Dodecyl Sulfate (SDS) polyacrylamide gel electrophoresis in parallel with molecular weight markers on a 10% resolving gel. The separated proteins were then transferred to a nitrocellulose membrane in a semidry system. β-tubulin was used to ensure equivalent loading of the gel incubating the same membrane with β-tubulin antibody after stripping.
(§7) Western blotting kit was used for immunodetection, using anti-GLUT4 and anti-CD38 antibodies. Detection was done by the enhanced chemiluminescence method and densitometric quantitation was done by scanning of the autoradiographic GLUT4 and CD38 signals with the help of software. Densitometric scanning was indicated the (percentage of band intensity) of GLUT4 bands and CD38 bands of test samples treated diabetic rats and diabetic control rats. Data were expressed as percentage increase or decrease of intensity of band.
(§8) Each value represents mean±SD (n=6). The significance of in vivo data was analyzed by one-way Anova followed by Dunnet test. P<0.05 was considered as significant.

CD38 [2] = test: Western blot of CD38 expression in liver tissues of streptozotocin-induced diabetic rats; design: % Decrease of CD38 Disease control: concentration or dose not given beside the values; details: STZ diabetic rats; for % Decrease of CD38 Disease control: liver tissue, 28 days treatment, versus diabetic control G2
Procedure: as §1, §2, §3, §4, §5, §6, §7, §8

GLUT4 [3] = test: Western blot of GLUT4 expression in skeletal muscles of streptozotocin-induced diabetic rats; details: STZ diabetic rats, skeletal muscle membrane, daily treatment for 28 days from day 15 after STZ, i.p. (Table 1), densitometry, n=6; normal control 100, diabetic control 80
CD38 [4] = test: Western blot of CD38 expression in liver tissues of streptozotocin-induced diabetic rats; details: STZ diabetic rats, liver tissue, daily treatment for 28 days from day 15 after STZ, densitometry, n=6; normal control 100, diabetic control 112

| Structure (SMILES) | % Increase of Glut4 over Disease control (GLUT4 [1]) [%] | % Decrease of CD38 Disease control (CD38 [2]) [%] | Band Intensity of GLUT4 (%) 54 kDa (GLUT4 [3]) [%] | Band Intensity of CD38 (%) 45 kDa (CD38 [4]) [%] | downregulation of CD38 (result in words) (CD38 [2]; discussion of the Western blot results) |
| --- | --- | --- | --- | --- | --- |
| C[C@H](O)C(=O)N[C@@H](Cc1ccccc1)C(=O)O [Composition G7, (2S)-2-[[(2S)-2-hydroxypropanoyl]amino]-3-phenylpropanoic acid] | 32.5 | 14.3 | 106 | 96 | – |
| CC(CN)C(=O)O (stereo not drawn) [Composition G4, 3-Aminoisobutyric acid] | 30.0 | 11.6 | 104 | 99 | – |
| CC(C)CC(N)C(=O)NC(CC(C)C)C(=O)O (stereo not drawn) [Composition G9, Dileucine] | 22.5 | 11.6 | 98 | 99 | – |
| O=C(O)CC(=O)C(=O)O [Composition G6, Oxobutanedioic acid] | 27.5 | 9.8 | 102 | 101 | – |
| CC1=CC(=O)CC(C)(C)[C@@]1(O)/C=C/C(C)=C\C(=O)O [Composition G3, (2Z,4E)-5-[(1S)-1-hydroxy-2,6,6-trimethyl-4-oxocyclohex-2-en-1-yl]-3-methylpenta-2,4-dienoic acid] | 37.5 | 15.2 | 110 | 95 | not sufficient to give significant results |
| C[S+]([O-])CCCCN=C=S (stereo not drawn) [Composition G5, 1-isothiocyanato-4-methylsulfinylbutane] | 18.8 | 8.9 | 95 | 102 | – |
| CC1=C(O)C(=O)C=C2C1=CC=C1[C@@]2(C)CC[C@@]2(C)[C@@H]3C[C@](C)(C(=O)O)CC[C@]3(C)CC[C@]12C [Composition G10, (2R,4aS,6aR,6aS,14aS,14bR)-10-hydroxy-2,4a,6a,6a,9,14a-hexamethyl-11-oxo-1,3,4,5,6,13,14,14b-octahydropicene-2-carboxylic acid] | 18.8 | 9.8 | 95 | 101 | – |
| CCCCCCCCCCCCCCC(=O)O [Composition G8, Pentadecanoic acid] | 25.0 | 8.0 | 100 | 103 | – |
